According to PubChem BioAssay (NCI):
Where “and” joins values, the source holds several entries; their conditions need not be identical. Equal entries are not always repeated.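 Results reflect a 48-hour exposure of cells in 96-well plates to compound at five concentrations. Abbreviation: GI50, concentration required for 50% inhibition of growth. The concentration for full growth arrest is given as TGI.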

Experiments:
Test in all cases: growth of human tumour cells (NCI), 48 h
[1] = system: OVCAR-4 ovarian
[2] = system: SK-MEL-2 melanoma
[3] = system: HOP-92 NSCLC
[4] = system: M14 melanoma
[5] = system: EKVX NSCLC
[6] = system: NCI-H522 lung
[7] = system: NCI-H23 lung
[8] = system: OVCAR-5 ovarian
[9] = system: MOLT-4 leukemia
[10] = system: SN12C renal

With `CCn1c(-c2nonc2N)nc2ccncc21` the GI50 [1] was greater than 25 µM, the TGI [1] was greater than 25 µM and the GI50 [2] was greater than 25 µM. The TGI [2] was greater than 25 µM, the GI50 [3] was greater than 25 µM and the TGI [3] was greater than 25 µM. It also gave a GI50 [4] greater than 25 µM, a TGI [4] greater than 25 µM and a GI50 [5] greater than 25 µM. For the same molecule, the TGI [5] was greater than 25 µM, the GI50 [6] was greater than 25 µM and the TGI [6] was greater than 25 µM. The GI50 [7] was greater than 25 µM, the TGI [7] was greater than 25 µM and the GI50 [8] was greater than 25 µM. The TGI [8] was greater than 25 µM, the GI50 [9] was greater than 25 µM and the TGI [9] was greater than 25 µM. For the same molecule, the GI50 [10] was greater than 25 µM and the TGI [10] was greater than 25 µM.
Molecule `Cc1c2ccncc2c(C)c2c1[nH]c1ccc(O)c(OCC(F)(F)F)c12` has a TGI [1] of 14 µM, a TGI [2] of 22.9 µM and a TGI [3] of 16.5 µM. For the same molecule, the TGI [4] was 19.7 µM, the TGI [5] was 20.5 µM and the TGI [6] was 15.9 µM. The TGI [7] was 19.4 µM, the TGI [8] was 25.8 µM and the TGI [9] was 6.04 µM. It also gave a TGI [10] of 20.8 µM.
Work on `O=C1/C(=C/c2ccc([N+](=O)[O-])cc2)COc2ccc(O)cc21` yielded a GI50 [1] of 11.3 µM, a TGI [1] greater than 100 µM and a GI50 [2] of 73 µM. The TGI [2] was greater than 100 µM, the GI50 [3] was 38.6 µM and the TGI [3] was greater than 100 µM. The GI50 [4] was 7.78 µM, the TGI [4] was greater than 100 µM and the GI50 [5] was 42.7 µM. The TGI [5] was greater than 100 µM, the GI50 [6] was 2.05 µM and the TGI [6] was 6.05 µM. The GI50 [7] was 7.83 µM, the TGI [7] was 36.3 µM and the GI50 [8] was 5.97 µM. It also gave a TGI [8] of 33.2 µM, a GI50 [9] of 3.11 µM and a TGI [9] of 37.6 µM. It also gave a GI50 [10] of 2.22 µM and a TGI [10] of 6.85 µM.
`Nc1cc(-c2ccc(Cl)cc2)nn1-c1nnc(/C=C/c2ccco2)c(=O)[nH]1` gave a GI50 [1] of 2.64 µM, a TGI [1] of 13.4 µM and a GI50 [2] of 19 µM. It also gave a TGI [2] greater than 88.3 µM, a GI50 [3] of 2.6 µM and a TGI [3] of 16.7 µM. The GI50 [4] was 3.41 µM, the TGI [4] was 30.6 µM and the GI50 [5] was 4.11 µM. It also gave a TGI [5] greater than 55.7 µM, a GI50 [6] of 8.95 µM and a TGI [6] of 40.3 µM. For the same molecule, the GI50 [7] was 7.73 µM, the TGI [7] was 63.5 µM and the GI50 [8] was 10.9 µM. The TGI [8] was greater than 90.5 µM, the GI50 [9] was 3.17 µM and the TGI [9] was greater than 43 µM. The GI50 [10] was 18.5 µM and the TGI [10] was greater than 100 µM.
With `O=C(c1cccs1)C1NO[N+]([O-])=C1c1cccs1` (stereo not given) the GI50 [1] was 2.13 µM, the TGI [1] was 4.97 µM and the GI50 [2] was 11.2 µM. For the same molecule, the TGI [2] was 24.5 µM, the GI50 [3] was 1.65 µM and the TGI [3] was 3.59 µM. It also gave a GI50 [4] of 2.71 µM, a TGI [4] of 7.87 µM and a GI50 [5] of 3.71 µM. It also gave a TGI [5] of 10.9 µM, a GI50 [6] of 0.174 µM and a TGI [6] of 0.336 µM. For the same molecule, the GI50 [7] was 2.94 µM, the TGI [7] was 9.42 µM and the GI50 [8] was 7.62 µM. The TGI [8] was 20.4 µM, the GI50 [9] was 2.86 µM and the TGI [9] was 9.19 µM. For the same molecule, the GI50 [10] was 9.49 µM and the TGI [10] was 21.8 µM.
With `COc1ccccc1NC(=O)/C(=C/c1ccccc1)C(C)=O` the TGI [1] was greater than 100 µM, the TGI [2] was greater than 100 µM and the TGI [3] was greater than 100 µM. The TGI [4] was 67.6 µM, the TGI [5] was greater than 100 µM and the TGI [6] was 58.2 µM. The TGI [7] was 65.7 µM, the TGI [8] was greater than 100 µM and the TGI [9] was greater than 100 µM. The TGI [10] was greater than 100 µM.
In the case of `COc1cccc2c(=O)c3c(sc12)c(NCCCNCCO)nc1ccccc13`, the GI50 [1] is reported as 1.63 µM, the TGI [1] is reported as 3.38 µM and the GI50 [2] is reported as 1.83 µM. The TGI [2] was 3.74 µM, the GI50 [3] was 1.32 µM and the TGI [3] was 13.1 µM. It also gave a GI50 [4] of 1.7 µM, a TGI [4] of 3.22 µM and a GI50 [5] of 1.52 µM. It also gave a TGI [5] of 3.05 µM, a GI50 [6] of 1.58 µM and a TGI [6] of 3.45 µM. It also gave a GI50 [7] of 1.64 µM, a TGI [7] of 3.27 µM and a GI50 [8] of 1.58 µM. For the same molecule, the TGI [8] was 3.16 µM, the GI50 [9] was 1.58 µM and the TGI [9] was 3.31 µM. It also gave a GI50 [10] of 1.51 µM and a TGI [10] of 3.06 µM.
`CC(C)(C)OC(=O)NC1CCCC1=O` (stereo not given) gave a TGI [1] greater than 100 µM, a TGI [2] greater than 100 µM and a TGI [3] greater than 100 µM. It also gave a TGI [4] greater than 100 µM, a TGI [5] greater than 100 µM and a TGI [6] greater than 100 µM. It also gave a TGI [7] greater than 100 µM, a TGI [8] greater than 100 µM and a TGI [9] greater than 100 µM. The TGI [10] was greater than 100 µM.
For `Cc1cc(C)n(C2=NS(=O)(=O)c3ccccc3N2C)n1`, the TGI [1] was greater than 100 µM, the TGI [2] was greater than 100 µM and the TGI [3] was greater than 100 µM. The TGI [4] was greater than 100 µM, the TGI [5] was greater than 100 µM and the TGI [6] was greater than 100 µM. It also gave a TGI [7] greater than 100 µM, a TGI [8] greater than 100 µM and a TGI [9] greater than 100 µM. It also gave a TGI [10] greater than 100 µM.
In the case of `Cc1c(C)c(CC(=O)N2CC2)c(C)c(C)c1CC(=O)N1CC1`, the TGI [1] is reported as 44.8 µM, the TGI [2] is reported as 32.6 µM and the TGI [3] is reported as 44.9 µM. The TGI [4] was 18.9 µM, the TGI [5] was 65.8 µM and the TGI [6] was 27.1 µM. For the same molecule, the TGI [7] was 39.4 µM, the TGI [8] was greater than 83.8 µM and the TGI [9] was 2.91 µM. It also gave a TGI [10] greater than 56.7 µM.
`O=S1CSSC1` gave a TGI [1] of 33.9 µM, a TGI [2] of 33.9 µM and a TGI [3] of 57.4 µM. It also gave a TGI [4] of 55.8 µM, a TGI [5] of 77.8 µM and a TGI [6] of 25.9 µM. For the same molecule, the TGI [7] was 76.7 µM, the TGI [8] was 36.7 µM and the TGI [9] was 43.1 µM. The TGI [10] was 24.4 µM.
For `Cc1cc2c(cc1Cl)S/C(=C/C(=O)O)C(Nc1cccc3nsnc13)=NS2(=O)=O`, the GI50 [1] was 18.7 µM, the TGI [1] was 42.7 µM and the GI50 [2] was greater than 58.6 µM. For the same molecule, the TGI [2] was greater than 77.8 µM, the GI50 [3] was 28.2 µM and the TGI [3] was 62 µM. For the same molecule, the GI50 [4] was greater than 47 µM, the TGI [4] was greater than 60.5 µM and the GI50 [5] was greater than 10.5 µM. The TGI [5] was greater than 19.9 µM, the GI50 [6] was 30.7 µM and the TGI [6] was greater than 77.4 µM. It also gave a GI50 [7] of 35.2 µM, a TGI [7] greater than 61.7 µM and a GI50 [8] of 34.6 µM. The TGI [8] was greater than 67.4 µM, the GI50 [9] was 17.9 µM and the TGI [9] was greater than 59.4 µM. For the same molecule, the GI50 [10] was 27 µM and the TGI [10] was greater than 53.4 µM.
With `CCOc1ccc(Nc2c3ccccc3nc3ccccc23)cc1` the GI50 [1] was 0.748 µM and 1.35 µM, the TGI [1] was 7.36 µM and 10.8 µM and the GI50 [2] was 0.402 µM and 0.413 µM. For the same molecule, the TGI [2] was 3.76 µM and 1.69 µM, the GI50 [3] was 0.299 µM and 1.06 µM and the TGI [3] was 3.16 µM and 9.42 µM. The GI50 [4] was 0.359 µM and 0.312 µM, the TGI [4] was 1.51 µM and 1.69 µM and the GI50 [5] was 0.863 µM and 0.613 µM. The TGI [5] was 7.56 µM and 6.1 µM, the GI50 [6] was 0.214 µM and 0.319 µM and the TGI [6] was 1.44 µM and 11.8 µM. For the same molecule, the GI50 [7] was 0.495 µM and 0.422 µM, the TGI [7] was 4.51 µM and 3.3 µM and the GI50 [8] was 1.91 µM and 0.514 µM. For the same molecule, the TGI [8] was 18.3 µM and 13.2 µM, the GI50 [9] was 0.476 µM and 0.258 µM and the TGI [9] was 5.59 µM and 1.27 µM. The GI50 [10] was 1.08 µM and 1 µM and the TGI [10] was 14.5 µM and 9.76 µM.
